Results published in publication PMC10850954, “HDAC6/aggresome processing pathway importance for inflammasome formation is context-dependent” (The Journal of Biological Chemistry, 2024).

What was measured:
HDAC6 [1] = biological target: T1, HDAC6 (Homo sapiens, UniProt Q9UBN7); set-up: method as in PMID 34314730; conditions: cited from earlier work
T1 sequence (Q9UBN7 1-1215): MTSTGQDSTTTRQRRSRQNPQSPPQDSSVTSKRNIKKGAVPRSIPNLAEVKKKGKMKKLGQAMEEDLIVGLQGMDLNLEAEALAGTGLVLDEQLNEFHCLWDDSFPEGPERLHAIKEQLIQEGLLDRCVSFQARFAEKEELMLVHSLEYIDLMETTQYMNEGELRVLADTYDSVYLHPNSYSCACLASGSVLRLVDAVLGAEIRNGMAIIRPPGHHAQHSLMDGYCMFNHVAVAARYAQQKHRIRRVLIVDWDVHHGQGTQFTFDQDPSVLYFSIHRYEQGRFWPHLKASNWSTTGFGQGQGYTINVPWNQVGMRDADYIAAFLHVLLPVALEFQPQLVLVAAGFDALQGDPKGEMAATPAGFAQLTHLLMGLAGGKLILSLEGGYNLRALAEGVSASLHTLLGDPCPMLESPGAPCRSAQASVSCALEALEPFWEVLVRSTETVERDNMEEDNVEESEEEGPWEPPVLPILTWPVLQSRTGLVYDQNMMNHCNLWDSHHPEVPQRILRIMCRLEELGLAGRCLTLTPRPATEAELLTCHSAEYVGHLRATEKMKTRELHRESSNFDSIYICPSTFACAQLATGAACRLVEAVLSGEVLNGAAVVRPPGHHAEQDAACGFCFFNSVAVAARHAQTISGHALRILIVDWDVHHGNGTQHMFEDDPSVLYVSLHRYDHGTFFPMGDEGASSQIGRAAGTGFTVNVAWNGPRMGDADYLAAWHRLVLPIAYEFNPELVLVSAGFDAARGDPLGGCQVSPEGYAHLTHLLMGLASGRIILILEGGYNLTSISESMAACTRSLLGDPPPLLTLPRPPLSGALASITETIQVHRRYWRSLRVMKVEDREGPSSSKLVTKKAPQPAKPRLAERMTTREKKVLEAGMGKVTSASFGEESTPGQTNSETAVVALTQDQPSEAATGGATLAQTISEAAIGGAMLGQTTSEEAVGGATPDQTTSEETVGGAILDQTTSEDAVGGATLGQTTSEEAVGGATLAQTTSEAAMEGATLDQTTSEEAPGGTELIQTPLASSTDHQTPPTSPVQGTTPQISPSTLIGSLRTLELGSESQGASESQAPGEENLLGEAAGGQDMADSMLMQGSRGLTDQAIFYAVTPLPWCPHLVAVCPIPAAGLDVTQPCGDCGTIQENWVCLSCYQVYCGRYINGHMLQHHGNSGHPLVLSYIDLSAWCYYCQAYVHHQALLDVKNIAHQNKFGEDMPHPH

HDAC6 [2] = biological target: T1, HDAC6; assay: HDAC6 degradation in PBMCs (immunoblot); assay type: cell-based; set-up: endogenous in cells; host or cells: PBMCs (with or without LPS priming); conditions: XY-07-35 at 1 μM
From the text: Figure 3 Effect of […] mediated HDAC6 degradation on NLRP3 inflammasome activation in PBMCs.A, schematic of the mode of action of an HDAC6 degrader. The PROTAC engages both HDAC6 and the E3 ligase cereblon (CRBN), which then leads to ubiquitination and degradation of HDAC6. B, chemical structure of the HDAC6 degrader XY-07-35 and of the negative control XY-07-191 which no longer recruits CRBN. C, in vitro enzymatic assay of compound XY-07-35 on the activity of different HDACs. IC50 for each enzyme is shown. D, XY-07-35 mediated HDAC6 degradation in PBMCs. PBMCs (without or with LPS priming for 4 h) were treated with the indicated compounds and HDAC6 levels were detected by immunoblotting with an anti-HDAC6 antibody. Detection of actin was used as a control for loading. CGP, CGP084892 (Caspase-1 inhibitor); AFN700 is an inhibitor of the NF-kB pathway (IKK inhibitor). E, HDAC6 degradation impact on IL-1β release in PBMCs following MSU 200 μg/ml (5 h), nigericin 2 μM (2 h) or ATP 3 mM (0.5 h) treatment. Cells were first primed with 0.2 ng/ml LPS for 4 h at 37 °C, then treated with MSU, nigericin, and ATP as indicated. […]
Treated BMDM cells were lysed with RIPA buffer (supplied with cOmplete Protease Inhibitor Cocktail, Merck#11697498001), and protein concentration was determined by Bradford assay. […]

Row | SMILES | degradation profile (specificity) (HDAC6 [1]) | HDAC6 degradation / effect on HDAC6 levels (HDAC6 [2])
1 | CN(C(=O)CCCNc1cccc2c1C(=O)N(C1CCC(=O)NC1=O)C2=O)c1ccc(NC(=O)CCCCCCC(=O)NO)cc1 (stereo not drawn) [XY-07-35] | highly specific for HDAC6 | efficiently degraded
2 | CN1C(=O)CCC(N2C(=O)c3cccc(NCCCC(=O)N(C)c4ccc(NC(=O)CCCCCCC(=O)NO)cc4)c3C2=O)C1=O (stereo not drawn) [XY-07-191] |  | only minimal or no effect on HDAC6 levels
